# Results: patent US6617124B1, “7-alkoxycoumarins as cytochrome p450 substrates” (SmithKline Beecham p.l.c., priority 1998, dated 2003)
row,SMILES,melting point
1,COc1ccc2c(CN(C)C)cc(=O)oc2c1,97 °C
2,CNCc1cc(=O)oc2cc(OC)ccc12,109 to 109.5 °C
